Laboratory results published in patent US20030235904A1, “Bacterial parts washer, composition and method of use” (Osprey Biotechnics, Inc., priority 2002, published 2003).

Key:
[1] = test system: Pseudomonas putida NRRL-B-18118; experiment: Oxygen uptake (BOD analyzer) with NEODOL 91-6 and 1% motor oil; type: cell-based; parameters: oxygen uptake: unit not given here; conditions: for oxygen uptake: 25° C.
Method: The assay measured oxygen uptake of Pseudomonas putida NRRL-B-18118 in the presence 0.001 to 1.0% NEODOL 91-6 and 1% motor oil in a minimal media broth. The pseudomonads were suspended at 10^8 CFU/mL and placed in a HATCH Model 2173B biological oxygen demand (BOD) analyzer at 25° C. […] was measured over a 48 hour time period.

[2] = test system: Pseudomonas putida NRRL-B-18118; experiment: Shelf-life of the pseudomonad stored with NEODOL 91-6 (plate counts); type: cell-based
Method: The Pseudomonas putida NRRL-B-18118 was stabilized in a liquid according to the method described in U.S. Pat. No. 5,980,747 to Vandenbergh. Briefly, sodium nitrate was mixed with water in an amount of 0.26 gm per 100 gm (mL) of water. This produced a 0.26% solution by weight. To this solution, Pseudomonas putida NRRL-B-18118 was added in an amount to provide a final concentration of 1.4×10^8 CFU/mL of the pseudomonad and a final concentration of nitrate of 0.13%. Optionally, a buffering amount of monoammonium phosphate was added at a ratio between about 1:1 to 125:1 sodium nitrate to monoammonium phosphate to enhance the preservation of the pseudomonad at 25° C.
Pseudomonas putida NRRL-B-18118 was stabilized in a liquid according as described in Example 1. The stabilized pseudomonads were then mixed with the ethoxylated surfactant NEODOL 91-6 at the appropriate amount to arrive at the appropriate fixed concentration. The solutions were incubated at 25° C. At various times, aliquots were removed and plated on agar plates and the colony forming units (CFU) per mL were recorded.

(C9-C11) alkyl alcohol ethoxylate (polyethyleneglycol-(C9-C11)-ether) [NEODOL 91-6]
oxygen uptake ([1]; 0.001% NEODOL 91-6, 1% motor oil, 0 h): 0 | oxygen uptake ([1]; 0.001% NEODOL 91-6, 1% motor oil, 12 h): 40 | oxygen uptake ([1]; 0.001% NEODOL 91-6, 1% motor oil, 21 h): 100 | oxygen uptake ([1]; 0.001% NEODOL 91-6, 1% motor oil, 28 h): 140 | oxygen uptake ([1]; 0.001% NEODOL 91-6, 1% motor oil, 31 h): 160 | oxygen uptake ([1]; 0.001% NEODOL 91-6, 1% motor oil, 48 h): 200 | oxygen uptake ([1]; 0.01% NEODOL 91-6, 1% motor oil, 0 h): 0 | oxygen uptake ([1]; 0.01% NEODOL 91-6, 1% motor oil, 12 h): 40 | oxygen uptake ([1]; 0.01% NEODOL 91-6, 1% motor oil, 21 h): 40 | oxygen uptake ([1]; 0.01% NEODOL 91-6, 1% motor oil, 28 h): 60 | oxygen uptake ([1]; 0.01% NEODOL 91-6, 1% motor oil, 31 h): 60 | oxygen uptake ([1]; 0.01% NEODOL 91-6, 1% motor oil, 48 h): 110 | oxygen uptake ([1]; 0.1% NEODOL 91-6, 1% motor oil, 0 h): 0 | oxygen uptake ([1]; 0.1% NEODOL 91-6, 1% motor oil, 12 h): 20 | oxygen uptake ([1]; 0.1% NEODOL 91-6, 1% motor oil, 21 h): 40 | oxygen uptake ([1]; 0.1% NEODOL 91-6, 1% motor oil, 28 h): 60 | oxygen uptake ([1]; 0.1% NEODOL 91-6, 1% motor oil, 31 h): 80 | oxygen uptake ([1]; 0.1% NEODOL 91-6, 1% motor oil, 48 h): 110 | oxygen uptake ([1]; 0.5% NEODOL 91-6, 1% motor oil, 0 h): 0 | oxygen uptake ([1]; 0.5% NEODOL 91-6, 1% motor oil, 12 h): 20 | oxygen uptake ([1]; 0.5% NEODOL 91-6, 1% motor oil, 21 h): 40 | oxygen uptake ([1]; 0.5% NEODOL 91-6, 1% motor oil, 28 h): 50 | oxygen uptake ([1]; 0.5% NEODOL 91-6, 1% motor oil, 31 h): 70 | oxygen uptake ([1]; 0.5% NEODOL 91-6, 1% motor oil, 48 h): 90 | oxygen uptake ([1]; 1.0% NEODOL 91-6, 1% motor oil, 0 h): 0 | oxygen uptake ([1]; 1.0% NEODOL 91-6, 1% motor oil, 12 h): 10 | oxygen uptake ([1]; 1.0% NEODOL 91-6, 1% motor oil, 21 h): 20 | oxygen uptake ([1]; 1.0% NEODOL 91-6, 1% motor oil, 28 h): 30 | oxygen uptake ([1]; 1.0% NEODOL 91-6, 1% motor oil, 31 h): 50 | oxygen uptake ([1]; 1.0% NEODOL 91-6, 1% motor oil, 48 h): 80 | function of the pseudomonads in the presence of NEODOL 91-6 ([1]; tested NEODOL 91-6 concentrations, 48 hour time period): remained functional | CFU/mL (time) ([2]; 0.5% NEODOL 91-6, 25° C., 1 Month): 5.0 × 10^7 CFU/mL | CFU/mL (time) ([2]; 0.5% NEODOL 91-6, 25° C., 3 Months): 1.0 × 10^7 CFU/mL | CFU/mL (time) ([2]; 0.5% NEODOL 91-6, 25° C., 5 Months): 3.0 × 10^7 CFU/mL | CFU/mL (time) ([2]; 0.5% NEODOL 91-6, 25° C., 7 Months): 6.0 × 10^6 CFU/mL | CFU/mL (time) ([2]; 0.5% NEODOL 91-6, 25° C., Zero (h)): 1.4 × 10^8 CFU/mL | CFU/mL (time) ([2]; 1.0% NEODOL 91-6, 25° C., 1 Month): 5.0 × 10^7 CFU/mL | CFU/mL (time) ([2]; 1.0% NEODOL 91-6, 25° C., 3 Months): 1.5 × 10^7 CFU/mL | CFU/mL (time) ([2]; 1.0% NEODOL 91-6, 25° C., 5 Months): 1.0 × 10^7 CFU/mL | CFU/mL (time) ([2]; 1.0% NEODOL 91-6, 25° C., 7 Months): 1.0 × 10^6 CFU/mL | CFU/mL (time) ([2]; 1.0% NEODOL 91-6, 25° C., Zero (h)): 1.4 × 10^8 CFU/mL | CFU/mL (time) ([2]; 5.0% NEODOL 91-6, 25° C., 1 Month): 5.0 × 10^7 CFU/mL | CFU/mL (time) ([2]; 5.0% NEODOL 91-6, 25° C., 3 Months): 1.4 × 10^7 CFU/mL | CFU/mL (time) ([2]; 5.0% NEODOL 91-6, 25° C., 5 Months): 1.0 × 10^7 CFU/mL | CFU/mL (time) ([2]; 5.0% NEODOL 91-6, 25° C., 7 Months): 1.0 × 10^6 CFU/mL | CFU/mL (time) ([2]; 5.0% NEODOL 91-6, 25° C., Zero (h)): 1.4 × 10^8 CFU/mL | effect on shelf-life of Pseudomonas putida NRRL-B-18118 ([2]; NEODOL 91-6 0.5 to 5% in the storage solution): not adversely affected | decrease in viability of the pseudomonads ([2]; stored in the presence of NEODOL 91-6, over seven months): two log decrease
